The results in this text go back to patent US20240327462A1, “SHORT PEPTIDES, PHARMACEUTICAL COMPOSITIONS COMPRISING THE SAME, AND USES THEREOF IN TREATING NEUROLOGICAL DISEASES” (FU JEN CATHOLIC UNIVERSITY, priority 2023, published 2024).

In test [1] the test system is ALS SOD1G93A mice. Kind of test: Denervation of neuromuscular junction (NMJ) in ALS SOD1G93A mice. The class given is in vivo. The note with it: 250 ug (about 10 mg/Kg) i.v. weekly from day 60; gastrocnemius muscle of 75-day-old mice; vs PBS-injected mouse. As to the method:
(§1) Transgenic mice of the congenic strain ALS SOD1^G93A carrying human SOD1 with the pathogenic G93A mutation (a mouse model of ALS that developed stereotyped phenotypes resembling the symptoms in ALS patients) were purchased from The Jackson Laboratory (JAX). The present peptide (i.e., FD1, FD2, FD3 or FD4) was initiated to inject intravenously in an amount of 250 ug (about 10 mg/Kg) into 60-day-old ALS SOD1^G93A mice. Injection was performed weekly. Injection of PBS served as a control group. The treated mice were monitored daily and analyzed via video tracking software.
To study the denervation of NMJ, the gastrocnemius muscles were extracted from 75-day-old ALS SOD1^G93A mice received with either PBS (control) or the present peptide (FD1, FD2, FD3 or FD4) and analyzed by immunostaining. In brief, the gastrocnemius muscles fixed with paraformaldehyde (PFA) were mounted on glass slides and treated with 2% TRITON™ for one hour. After blocking with PBS containing 5% bovine serum albumin (BSA) for 2 hours, the antibody against either synaptic vesicle protein (synapsin) or alpha-Bungarotoxin (α-BTX) was added to the slides, followed by incubating at 4° C. for 16 hours. The slides were washed with PBS containing 2% TRITON™ for three times, and then Cy2-conjugated anti-rabbit antibody and ALEXA FUOR™ 647-conjugated anti-mouse antibody were respectively added to the slides, followed by incubating at 4° C. for 16 hours. The slides were washed with PBS containing 2% TRITON™ for three times. The axon terminal of motoneurons via synapsin labeled by green fluorescent signal, while detected the acetylcholine receptor on motor endplates via α-BTX labeled by red fluorescent signal. […]. The percentage of yellow signal (green signal overlapped with red signal) among total red signal shown on the 600× magnified image area (400×400 pixels) of muscle sample from PBS- and peptide-injected SOD1-G93A ALS mouse was calculated using software. Each experiment was calculated from 13-15 images.

The subject of test [2] is phosphorylated cofilin (p-cofilin). The experiment in a line: Western blot of phosphorylated cofilin (p-cofilin) in treated NSC34 cells. Format: cell-based, mouse. The note with it: NSC34 cells in NogoA-overexpressed Sol8 CM with peptide, compared to PBS control normalized as 1. As to the method:
(§2) NSC34 cells (mouse Neuroblastoma x Spinal Cord-34 cell line) (RRID:CVCL_D356) were cultured in DMEM medium containing 10% FBS, 100 units/ml penicillin and 1% streptomycin. To investigate the effect of the present peptides (including FD1, FD2, FD3 and FD4) on neurons, NSC34 cells were cultivated in differentiation medium (DMEM medium containing 2.5% FBS, 100 units/ml penicillin and 1% streptomycin) for 24 hours, and then continued cultivating in CM obtained from culturing Sol8-NogoA cells (Sol8-NogoA CM) with or without addition of the present peptide (i.e., FD1, FD2, FD3 or FD4) in an amount of 66 ng/ml. The CM with or without containing the present peptide was refreshed daily. Cells were fixed with paraformaldehyde (PFA) for 48 hours, followed by measuring the length of neurite outgrowth using software based the neurites shown on microscopic image. Each data was averaged from three independent experiments and the length presented in each time was averaged from more than 100 counting cells. The effect of the present peptide on improving neurite outgrowth was determined by comparing the neurite length of NSC34 cells treated with the present peptide in Sol8-NogoA CM with that of NSC34 cells treated with phosphate buffered saline (PBS; serving as a control group) in Sol8-NogoA CM.
The total proteins extracted from treated NSC34 cells were analyzed by sodium dodecyl-sulfate polyacrylamide gel electrophoresis (SDS-PAGE) on a 12% polyacrylamide gel. After electrophoresis, western blotting was performed. The protein levels of phosphorylated cofilin (p-cofilin) and alpha-tubulin contained in NSC34 cells cultured in medium with addition of either PBS (served as control) or the present peptide (i.e., FD1, FD2, FD3 or FD4) were determined using antibodies specifically against p-cofilin and alpha-tubulin, respectively. The intensity shown on the blot was quantified by software. Each data was averaged from three independent experiments. The relative intensity among groups was based on the comparison with that of control group set as 1.

The test system of test [3] is ALS SOD1G93A mice. Kind of test: Survival of ALS SOD1G93A mice. Format: in vivo, mouse. Particulars: 250 ug (about 10 mg/Kg) i.v. weekly from day 60; for cumulated survival rate compared to PBS-injected control mice: 5 mice per group vs 7 PBS controls; for average survival days: 5 mice per group, PBS control 130.0. As to the method: as §1
The initial total number of ALS mice in each group (7 and 5 samples for control and FD-treated groups, respectively) was set as a 100% survival rate. During experimental period, once the ALS mouse was dead, the number and its survival days were recorded, and the cumulative survival rate was counted. When all ALS mice within the experimental group were dead, the cumulative survival rate was considered as 0%. In case that either the weight loss of a mouse was greater than 20% of original or a mouse that was not capable to eat and drink normally, euthanasia was performed and considered it as a non-survival sample. The survival days for each group were averaged from seven samples for PBS-injected control group and five samples for FD-injected experimental groups.

A further test has as its system NSC34 cells. Kind of test: Neurite outgrowth of NSC34 cells cultured in Sol8-NogoA conditioned medium. Particulars: Sol8-NogoA CM with peptide 66 ng/ml, 48 hours; PBS in Sol8-NogoA CM 53.6 μm, PBS in Sol8 CM 99.4 μm. Format: cell-based, mouse. On the procedure:
. After 24-48 hours, the supernatant containing viral particles was collected and centrifuged at a speed of 1,250 rpm, followed by adding to Sol8 cells (ATCC, CRL-2174) pretreated with 8 μg/ml POLYBRENE®. 24 hour later, the fresh DMEM medium containing 10% fetal bovine serum (FBS), 100 units/ml penicillin, 1% streptomycin and 4 ug/ml puromycin was added to the Sol8 cells so as to obtain NogoA-overexpressed Sol8 cells.
The wild-type Sol8 cells and NogoA-overexpressed Sol8 cells (Sol8-NogoA cells) were respectively cultured and differentiated in DMEM medium containing 10% FBS, 100 units/ml penicillin and 1% streptomycin. Two days later, 1 μg/μl of doxycycline was added to the medium so as to induce the expression of target genes. The culture medium was collected and the fresh medium containing doxycycline was added to the Sol8-NogoA cells every 24 hours. The collected culture medium was then centrifuged at a speed of 3,000 rpm for 5 minutes at room temperature, and the supernatant was harvested therefrom served as CM for the following assays.
as §2

Test [4] deals with Tg(mnxl:GFP) zebrafish embryos. The experiment in a line: Axonal branching of motor neurons in Tg(mnxl:GFP) zebrafish embryos. Particulars: microinjected into brain chamber at 20 hpf, examined at 30 hpf; compared to untreated and 16-a.a.-injected control groups. Format: in vivo. As to the method:
The branched primary motor neurons (PMN) derived from caudal primary (CaP) motoneurons located at somites from 11th to 20th of Tg(mnxl:GFP) zebrafish embryos at 30 hours post fertilization (hpf) was examined. The untreated embryos served as control group, the embryos injected with an arbitrary non-functional 16 a.a. served as mock control group, while experimental groups were embryos injected with FD1, FD2, FD3 or FD4. […] Each data was averaged from three independent experiments.
The PBS and present peptides (i.e., FD1, FD2, FD3 and FD4) were respectively microinjected into the brain chamber of Tg (mnxl:GFP) embryos at 20 hpf. After 10 hours, the control embryos, mock control embryos and experimental embryos were monitored by anatomic microscope equipped with fluorescence system and digital camera.

Test [5] has as its system ALS SOD1G93A mice. The experiment in a line: Moving capability of ALS model mice (SOD1 G93A). The note with it: 250 ug (about 10 mg/Kg) i.v. weekly from day 60; measured at 124 days after birth; vs PBS-injected control ALS mice. The class given is in vivo, mouse. As to the method: as §1
The moving capability of ALS model mice (SOD1 G93A) injected with PBS or the present peptide (i.e., FD1, FD2, FD3 or FD4) was determined via measuring the moving trajectory of each treated mouse at 124 days after birth.

Take “WEAFARGTKPLMDEVV [FD2, mutant of FD1, alanine at position 10 substituted with proline]”: the “percentage of co-localized synapsin-1 and α-BTX (NMJ integrity)” value (shortened to “percentage … (NMJ integrity)”) in the test on ALS SOD1G93A mice [1] is “significantly higher”. Moreover, the p-cofilin protein level result in test [2] was “significantly reduced”. Besides, in the test on ALS SOD1G93A mice [3], the “cumulated survival rate compared to PBS-injected control mice” value is recorded as “longer survival time” and the average survival days amounted to 147.0 days. In addition, the “neurite length of NSC34 cells” value with NSC34 cells was 66.6 μm. Besides, the “percentage of zebrafish embryos exhibiting branched motor neurons” value in test [4] is on record as “significantly increased”. Moreover, the moving distance result in the test with ALS SOD1G93A mice [5] is “significantly improved”.
As to “WEAFARGTRALMDEVV [FD3, mutant of FD1, lysine at position 9 substituted with arginine]”, in the test with ALS SOD1G93A mice [1], the “percentage … (NMJ integrity)” value is on record as “significantly higher”. For the same sequence, the p-cofilin protein level result in test [2] is “significantly reduced”. Moreover, in the test with ALS SOD1G93A mice [3], the “cumulated survival rate compared to PBS-injected control mice” value is on record as “not shown difference” and the average survival days came to 130.8 days. Further, the “neurite length of NSC34 cells” value in the test on NSC34 cells worked out at 88.2 μm. Further, in test [4], the “percentage of zebrafish embryos exhibiting branched motor neurons” value is reported as “significantly increased”. The moving distance entry in the test on ALS SOD1G93A mice [5] is reported as “significantly improved”.
In the case of “WEAFARGTKALMDEVV [FD1, short peptide derived from human PGK1, 16 a.a]”, the “percentage … (NMJ integrity)” value with ALS SOD1G93A mice [1] was “significantly higher”. Moreover, the p-cofilin protein level entry in test [2] is given as “significantly reduced”. Also, in the test with ALS SOD1G93A mice [3], the “cumulated survival rate compared to PBS-injected control mice” value was “longer survival time” and the average survival days stood at 140.0 days. The “neurite length of NSC34 cells” value with NSC34 cells is listed as 89.2 μm. The “percentage of zebrafish embryos exhibiting branched motor neurons” value in test [4] is given as “significantly increased”. Besides, the moving distance result in the test on ALS SOD1G93A mice [5] is “significantly improved”.
For the sequence “WEAFARGTKALMRQVV [FD4, mutant of FD1, D13 substituted with R and E14 with Q]”, in the test with ALS SOD1G93A mice [1], the “percentage … (NMJ integrity)” value was “significantly higher”. Besides, the p-cofilin protein level entry in test [2] is “significantly reduced”. For the same sequence, in the test on ALS SOD1G93A mice [3], the “cumulated survival rate compared to PBS-injected control mice” value was “longer survival time” and the average survival days turned out to be 139.0 days. The “neurite length of NSC34 cells” value with NSC34 cells is reported as 95.8 μm. Also, in test [4], the “percentage of zebrafish embryos exhibiting branched motor neurons” value is “significantly increased”. Further, the moving distance result in the test with ALS SOD1G93A mice [5] is “significantly improved”.
